Reference: patent US6444615B1, “Herbicidal imidazolidinetrione and thioxo-imidazolidinediones” (Dow AgroSciences LLC, priority 2000, dated 2002)

Columns and labels:
Type in all cases: in vivo
Conditions in all cases: 1200 g/ha, scale of 0-100, 0 no activity, 100 total control, about two or four weeks after application
[1] = tested on: Hairy Beggarticks (Bidens pilosa); assay: Herbicidal post-emergence test, Hairy Beggarticks
Description: (§1) Listed below, a typical planting design for the test, consisting of four monocot weeds, four dicot weeds and one sedge weed. [table] For each compound, evaluation tests were carried out according to the following procedures: For preemergence tests, immediately after planting, the test compound was sprayed directly onto the soil surface. The flats or pots were placed in the greenhouse and then watered. For postemergence tests, seeds were allowed to germinate and grow for 10 to 21 days before application. The test plants were selected for uniformity, size and stage of development. The test plants were then treated with the test compound, returned to the greenhouse and watered. Untreated plants were used as a comparison. The compound to be evaluated was dissolved in an appropriate solvent, usually acetone, or a formulation of the evaluated compounds as described above, was added to the water, and sprayed over the flats or pots using a carrier volume equivalent to 187 or 468 liters per hectare to give a rate of application in grams per hectare (g/ha). About two or four weeks after application of the test compounds, the state of the plant was observed. Each species was evaluated on a scale of 0-100 in which 0 equals no activity and 100 equals total control.

[2] = tested on: Crabgrass (large) (Digitaria sanguinalis); assay: Herbicidal pre-emergence test, Crabgrass (large)
Description: as §1

[3] = tested on: Barnyardgrass (Echinochloa crusgalli); assay: Herbicidal post-emergence test, Barnyardgrass
Description: as §1

[4] = tested on: Nutsedge, (yellow) (Cyperus esculentus); assay: Herbicidal post-emergence test, Nutsedge (yellow)
Description: as §1

[5] = tested on: Velvetleaf (Abutilon theophrasti); assay: Herbicidal post-emergence test, Velvetleaf
Description: as §1

[6] = tested on: Hairy Beggarticks (Bidens pilosa); assay: Herbicidal pre-emergence test, Hairy Beggarticks
Description: as §1

[7] = tested on: Smartweed, (pale) (Polygonum lapathifolium); assay: Herbicidal pre-emergence test, Smartweed (pale)
Description: as §1

[8] = tested on: Barnyardgrass (Echinochloa crusgalli); assay: Herbicidal pre-emergence test, Barnyardgrass
Description: as §1

[9] = tested on: Nutsedge, (yellow) (Cyperus esculentus); assay: Herbicidal pre-emergence test, Nutsedge (yellow)
Description: as §1

[10] = tested on: Perennial Ryegrass (Lolium perenne); assay: Herbicidal pre-emergence test, Perennial Ryegrass
Description: as §1

[11] = tested on: Foxtail, (green) (Setaria viridis); assay: Herbicidal post-emergence test, Foxtail (green)
Description: as §1

[12] = tested on: Crabgrass (large) (Digitaria sanguinalis); assay: Herbicidal post-emergence test, Crabgrass (large)
Description: as §1

[13] = tested on: Smartweed, (pale) (Polygonum lapathifolium); assay: Herbicidal post-emergence test, Smartweed (pale)
Description: as §1

[14] = tested on: Perennial Ryegrass (Lolium perenne); assay: Herbicidal post-emergence test, Perennial Ryegrass
Description: as §1

[15] = tested on: Foxtail, (green) (Setaria viridis); assay: Herbicidal pre-emergence test, Foxtail (green)
Description: as §1

[16] = tested on: Nightshade, (black) (Solanum nigrum); assay: Herbicidal pre-emergence test, Nightshade (black)
Description: as §1

[17] = tested on: Nightshade, (black) (Solanum nigrum); assay: Herbicidal post-emergence test, Nightshade (black)
Description: as §1

[18] = tested on: Velvetleaf (Abutilon theophrasti); assay: Herbicidal pre-emergence test, Velvetleaf
Description: as §1

Compound | Herbicidal Activity BID (post-emergence) [1] | Herbicidal Activity CRB (pre-emergence) [2] | Herbicidal Activity BYG (post-emergence) [3] | Herbicidal Activity NUT (post-emergence) [4] | Herbicidal Activity VEL (post-emergence) [5] | Herbicidal Activity BID (pre-emergence) [6] | Herbicidal Activity SMT (pre-emergence) [7] | Herbicidal Activity BYG (pre-emergence) [8] | Herbicidal Activity NUT (pre-emergence) [9] | Herbicidal Activity RYE (pre-emergence) [10] | Herbicidal Activity FOX (post-emergence) [11] | Herbicidal Activity CRB (post-emergence) [12] | Herbicidal Activity SMT (post-emergence) [13] | Herbicidal Activity RYE (post-emergence) [14] | Herbicidal Activity FOX (pre-emergence) [15] | Herbicidal Activity NS (pre-emergence) [16] | Herbicidal Activity NS (post-emergence) [17] | Herbicidal Activity VEL (pre-emergence) [18]
C#CCOc1cc(N2C(=O)C(=O)N(CCCC)C2=O)c(F)cc1Cl [Compound 14] | 95 | 0/0 | 30 | 0/0 | 100 | 0 | 0 | 0 | 0/0 | 0/0 | 40 | 0/0 | 60 | 0/0 | 0 | 0 | 100 | 0
C#CCOc1cc(N2C(=O)C(=O)N(C)C2=O)c(F)cc1Cl [Compound 12] | 95 | 0 | 40 | 0/0 | 100 | 40 | 0 | 0 | 0/0 | 0/0 | 40 | 30 | 100 | 0/0 | 0 | 50 | 100 | 20
CCCN1C(=O)C(=O)N(c2cc(OC3CCCC3)c(Cl)cc2F)C1=O [Compound 8] | 95 | 100 | 60 | 0/0 | 100/100 | 100 | 20 | 0 | 0/0 | 0/0 | 95 | 40 | 100 | 0/0 | 0 | 100/100 | 100/100 | 100/100
O=C1C(=O)N(c2cc(OC3CCCC3)c(Cl)cc2F)C(=O)N1CCCl [Compound 6] | 0 | 30 | 40/40 | 0/0 | 0/0 | 30 | 30 | 40/40 | 0/0 | 0/0 | 0 | 0 | 0 | 0/0 | 30 | 30 | 80 | 0/0
C#CCN1C(=O)COc2cc(F)c(N3C(=O)C(=O)N(C)C3=O)cc21 [Compound 22] | 80 | 100 | 60 | 60 | 100 | 95 | 85 | 40 | 0 | 0 | 80 | 40 | 90 | 30 | 100 | 95 | 100 | 40
CCN1C(=O)C(=O)N(c2cc(OC3CCCC3)c(Cl)cc2F)C1=O [Compound 4] | 85 | 0/0 | 60 | 0/0 | 100 | 0 | 0 | 0 | 0/0 | 0/0 | 60 | 0/0 | 90 | 0/0 | 0 | 0 | 85 | 0
C#CCOc1cc(N2C(=O)C(=O)N(CCC)C2=O)c(F)cc1Cl [Compound 13] | 85 | 100 | 80 | 30 | 100/100 | 100 | 100 | 95 | 0 | 60 | 60 | 30 | 95 | 30 | 100 | 100/100 | 100/100 | 100/100
CN1C(=O)C(=O)N(c2cc(OC3CCCC3)c(Cl)cc2F)C1=O [Compound 3] | 80 | 0/0 | 30 | 0/0 | 100 | 0 | 0 | 0 | 0/0 | 0/0 | 60 | 0/0 | 85 | 0/0 | 0 | 0 | 80 | 0
CCCN1C(=O)C(=O)N(c2cc(F)c(F)cc2F)C1=O [Compound C1, reference compound] | 40 | 0/0 | 0/0 | 0/0 | 60 | 0 | 0 | 0/0 | 0/0 | 0/0 | 0/0 | 0/0 | 60 | 0/0 | 0/0 | 0 | 80 | 0
